Here are results for one compound from publication PMC12844744, “Complexed Linalool with Beta-Cyclodextrin Improve Antihypertensive Activity: Pharmacokinetic and Pharmacodynamic Insights” (Pharmaceuticals, 2025).

Where two headings read alike, the source gives them in different places.

The test system of data set [1] is isolated superior mesenteric artery rings from SHRs. The data set is described as follows: Vascular reactivity of isolated superior mesenteric artery rings after 60-day treatment. The class given is in vivo, rat. Particulars: mesenteric rings from SHR treated 50 mg/kg/day 60 days, mean ± S.E.M.
Data set [2] in a line: Body weight progression during 60-day treatment. The settings on record: 50 mg/kg/day p.o., 60 days. Type of data set: in vivo, rat. The protocol:
Before starting any treatment, animals were conditioned for one week to minimize stress-related variability in BP and HR measurements. SHRs were randomly assigned to three experimental groups: Group 1 (SHR + Vehicle): Received saline solution (0.1 mL/100 g, p.o.); Group 2 (SHR + LIN): Treated with (-)-linalool (50 mg/kg/day, p.o.); and Group 3 (SHR + LIN/β-CD): Treated with the LIN/β-cyclodextrin inclusion complex (50 mg/kg/day, p.o.). An additional control group of normotensive Wistar rats (Group 4: Wistar + Vehicle) received saline under the same dosing protocol to serve as a baseline.

Data set [3] concerns spontaneously hypertensive rats (SHR). Put plainly: Acute oral (orogastric) effects on blood pressure and heart rate over 6 h. The class given is in vivo, rat. The settings on record: oral 50 mg/kg, monitored 6 h, vs vehicle.
A short description of data set [4]: Plasma pharmacokinetics (non-compartmental analysis), healthy Wistar rats. The class given is in vivo. The settings on record: NCA, mean ± SD; for Fabs, Absolute bioavailability: 100 mg/kg; for AUC(0-inf): n = 6, read-out: AUC0−∞, Total Area Under the Curve; for MRT: n = 6, read-out: MRT, Mean Residence Time; for k el: n = 6, read-out: ke, elimination rate constant (converted); for half-life: n = 6, read-out: t1/2, half-life (converted). The procedure: A bioanalytical methodology was developed and validated to quantify LIN in rat plasma using high-performance liquid chromatography with UV detection (HPLC/UV), according to RDC 27/2012 of the National Agency of Sanitary Vigilance, Brazil. Plasma aliquots (100 µL) were extracted with 300 µL of acetonitrile.
The samples were vortexed for 3 min and centrifuged at 13,000× g for 15 min, at 8 °C. The supernatant aliquots were injected into an HPLC instrument (PerkinElmer, Waltham, MA, USA), Flexar™ HPLC model), using reversed-phase column C18 (Nucleosil column 250 mm × 4.6 mm internal diameter, particle size 5 μm (Macherey—Nagel, Versmold, Germany) protected by a guard column with the same material (Hypersil BDS, 10 mm, particle size 5 μm (Thermo Scientific, Waltham, MA, USA) at a temperature of 50 ± 1 °C during the analysis.
The mobile phase was composed of water: acetonitrile (70:30, v/v), at a flow rate of 1 mL/min. LIN was detected at a wavelength of 210 nm, and the peak area was used for the quantitation of samples. The method was precise, sensitive and accurate within the concentration range of 5–100 ng/mL. All samples quantified were between the concentration range, the higher concentrations were diluted to reach the higher linear concentration.
Plasma pharmacokinetic parameters were estimated after administration of 50 mg/kg and 100 mg/kg, i.v. and orally, respectively, of LIN; 100 mg/kg orally of LIN/β-CD, in healthy Wistar rats; and 50 mg/kg of LIN/β-CD, in SHRs.
The animals received the drugs at the above doses through the caudal lateral vein or by oral gavage. Six animals were evaluated per group, as stated in the literature. After administration of the compounds, approximately 200 µL of blood samples were collected from the caudal lateral vein at 0.083, 0.25, 0.5, 1, 1.5, 2, 4, 6, and 8 h. Plasma was separated by centrifugation (6800× g at 8 ± 1 °C for 15 min) and stored at −20 °C until analysis. Non-compartmental analysis (NCA) of the individual concentration-time profiles was performed using Excel® 2016 software (Microsoft Corporation, Redmond, […], USA).
Calculated pharmacokinetic parameters included: the elimination rate constant (ke), absorption rate constant (ka), area under the concentration-time curve from 0 h to infinity (AUC0−∞), clearance (Cltot), half-life (t1/2), the volume of distribution (V), mean residence time (MRT), mean absorption time (MAT), absolute bioavailability (Fabs) and relative bioavailability (Frel). All the pharmacokinetic (PK) parameters were estimated individually aby analyzing the individual PK profiles. Results were expressed as the mean ± SD, and the PK parameters were compared by ANOVA followed by Student’s t-test (α = 0.05).

The subject of data set [5] is spontaneously hypertensive rats (SHR). Put plainly: Cardiac mass index after 60-day treatment. Type of data set: in vivo, rat. The settings on record: 50 mg/kg/day p.o., 60 days, vs SHR vehicle. The procedure:
(§1) After 60 days of treatment period, Wistar and SHRs were euthanized in a carbon dioxide (CO2) chamber. Hearts were carefully excised, and surrounding adipose tissue and vascular structures were meticulously removed. Each heart was weighed using an analytical balance, and the cardiac mass index was calculated by normalizing the heart weight to the total body weight of the animal. A transverse cut was then made, and the left and right ventricles, and thoracic aortas. Both tissues were fixed in 4% formaldehyde for histological processing.

Data set [6] has the same test system. The data set is described as follows: Histology of left ventricle and aorta (HE, Picrosirius Red) after 60-day treatment. Type of data set: in vivo, rat. The settings on record: 50 mg/kg/day p.o., 60 days. The protocol:
as §1
The hearts and thoracic aortas were fixed in 4% buffered formaldehyde (0.1 M sodium phosphate buffer, pH 7.4), followed by washing in distilled water. Tissue dehydration was carried out in a graded ethanol series of increasing concentrations, ending with absolute ethanol. Samples were then cleared in xylene, embedded in paraffin, and sectioned using a microtome (RM2125RT, Leica®, Wetzlar, Germany) to obtain serial 5 μm sections. […]
Histological evaluation was conducted in a blinded manner. […] Parameters assessed included the presence or absence of inflammatory infiltrates, hemorrhagic areas, and structural alterations such as decreased cardiomyocyte volume, disruption of muscle fiber continuity, loss of transverse striations, sarcoplasmic granulation, contraction bands, and nuclear changes indicative of tissue injury. […]

The term clearance denotes the volume of plasma or blood freed of the substance per unit of time. A word on the MRT: it is the average time that molecules of a dose stay in the body. Broadly, the Vd is a proportionality between amount in the body and measured concentration, not a real space. `C=CC(C)(O)CCC=C(C)C` (stereo not drawn) [LIN, 3,7-dimethyl-1,6-octadien-3-ol]: in data set [1] (Phe 10^−10 to 10^−5 M, expressed as percentage of KCl 60 mM contraction, in %), the “Emax of contractile response to phenylephrine” value came out at 146.72 ± 12.34. In data set [1] (SNP 10^−13 to 10^−5 M, percentage of Phe-induced contraction, in %), the “Emax of endothelium-independent relaxation to sodium nitroprusside” value is listed as −121.04 ± 10.45. In addition, the “Emax of endothelium-dependent vasorelaxation to acetylcholine” value in data set [1] (in % (unit assumed)) is on record as −70.52 ± 6.80. Further, the Body weight progression entry in data set [2] is listed as “no significant changes”. The “Effect on blood pressure after oral administration” value in data set [3] is reported as “failed to produce any significant antihypertensive effect”. For the same compound, in data set [4] (oral 100 mg/kg, n = 6), the “CL, clearance” value was found to be 84.3 ± 37.8 mL/min/kg; the “MAT, Mean absorption time” value is listed as 4.69 ± 1.50 h; the “Vd, Volume of Distribution” value is given as 16.29 ± 10.73 L/kg; the “ka, absorption rate constant” value came to 0.23 ± 0.07 h⁻¹. Besides, the “Fabs, Absolute bioavailability” value in data set [4] (oral 100 mg/kg, n = 6, listed as LIN Free) was determined as 0.003 ± 0.001%. Further, the “Fabs, Absolute bioavailability” value in data set [4] (oral 100 mg/kg, n = 6, listed as free LIN) is “approximately 0.003%”. Besides, in data set [4] (rat, plasma, iv, i.v. 50 mg/kg), the AUC(0-inf) is 25300 ± 18600 ng·h/mL, the MRT worked out at 8.75 ± 4.78 h, the k el is 3.61e-05 s⁻¹ and the half-life is 6.6 ± 4.04 h. Besides, in data set [4] (rat, plasma, iv, i.v. 50 mg/kg, n = 6, read-out: CL, clearance (converted)), the clearance is 50.5 mL/min/kg. The Vd in data set [4] (rat, plasma, iv, i.v. 50 mg/kg, n = 6, read-out: Vd, Volume of Distribution) is 25.2 ± 10.4 L/kg. In addition, in data set [4] (rat, plasma, oral 100 mg/kg), the AUC(0-inf) came to 40 ± 20 ng·h/mL, the MRT turned out to be 1.97 ± 0.65 h, the k el was 2.5e-05 s⁻¹ and the half-life was 8.64 ± 4.44 h. Also, the “Cardiac mass index (heart weight / body weight)” value in data set [5] is on record as “not observed”. Further, the Aortic histology result in data set [6] (aorta) is given as “no signs of vascular remodeling”. The “Myocardial histology (hematoxylin-eosin)” value in data set [6] (left ventricle) was “preserved myocardial morphology”.
